# Source: patent US7129271B2, “Compounds for pest control and methods for their use” (The United States of America as represented by the …, priority 2000, dated 2006)
# What was measured:
# Culex p. pipiens = assay: Mosquito susceptibility, serial dilutions (Example 8); settings: in vivo
# nymphal I. scapularis = assay: Baseline dose-mortality, method of Maupin and Piesman 1994 (Example 7); type: in vivo; settings: nymphal ticks
# Source text: Baseline dose-mortalities were established for nymphal I. scapularis for nootkatone and valencene-11,12-epoxide using the method described in Maupin, G. O., and Piesman, J., J. Med. Entomol., 31:319–21 (1994).
# A comparison of relative potency was made with published data for carbaryl and permethrin (Maupin and Piesman, 1994) and Alaska yellow cedar essential oil (Panella et al., J. Med. Entomol. 34:340–45 (1997) is presented in Table 6.
# Ae. aegypti adults = assay: Mosquito bottle bioassay (Example 9); type: in vivo; settings: Aedes aegypti, 24 h, 24 h exposure, 95% CI in parentheses
# Aedes aegypti = assay: Mosquito susceptibility (Example 8); settings: in vivo
# [1] = tested on: adult I. scapularis ticks; assay: Treated-vial biocidal screening, residual challenge (Example 2); type: in vivo, Ixodes scapularis; settings: treated vials sat 4 wk; arthropods added for final 24 h
# Procedure: (§1) Samples of the compounds listed below Were obtained from Dr. Karchesy, a co-inventor, and screened for biocidal activities against nymphal Ixodes scapularis. In this example, 2% acetone solutions (wt./vol.) of the compounds were applied to inner surfaces of 2-dram friction cap vials. Vials and caps were treated then allowed to dry for a minimum of 4 hours before placing 10 nymphs in each container. These same vials were used to challenge additional nymphs and adult I. scapularis ticks and adult Xenopsylla cheopis fleas through five weeks to observe any possible residual activity.
# (§2) Numbers in parentheses refer to length of treatment in terms of hours (h) or weeks (wk). Data is presented in terms of number killed/number tested. For test periods longer than 24 hours, the treated vials were allowed to sit for the stated period after drying (72 h, 4 wk, or 5 wk) and each group of arthropods was added to the vials for the final 24 h of the test period.
# [2] = tested on: adult Xenopsylla cheopis fleas; assay: as above; type: in vivo; settings: treated vials sat 5 wk; arthropods added for final 24 h
# Procedure: as §1, §2
# [3] = tested on: nymphal Ixodes scapularis; assay: Treated-vial biocidal screening, 2% acetone solutions (Example 2); type: in vivo
# Procedure: as §1, §2
# [4] = tested on: ticks, fleas, formicids and termites; assay: Persistence of biocidal activity, vials treated with 2% solutions (Example 5); type: in vivo
# Procedure: as §1
# Persistence of biocidal activity was determined for nootkatone and valencene-11,12-epoxide by using the vials as treated with the 2% solutions of Example 2. […] At 11 weeks, the biocidal activity began to dissipate below the 100% mortality level.
smiles,measurement,setting,value
"C[C@@H]1CCC=C2CCC(C3(C)CO3)C[C@]21C (stereo partly shown) [Compound 13, valencene-11,12-epoxide]",C. pipiens LD50,Culex p. pipiens,<4.5 × 10^−3
same,mortality rate at the lowest tested dosage,Culex p. pipiens,64%
same,more effective than essential oil of Alaska yellow cedar,nymphal I. scapularis,about 98%
same,potency relative to essential oil of Alaska yellow cedar,nymphal I. scapularis,approximately 50 times
same,LC50,Ae. aegypti adults; read-out: LC50,2.95 mg/mL
same,EC90,Ae. aegypti adults; read-out: LC90 (the source's name),19.1 mg/mL
same,A. aegypti LD50,Aedes aegypti,<4.5 × 10^−3
same,"I. scapularis adults (4 wk), number killed/number tested",[1],5/5
same,"X. cheopis adults (5 wk), number killed/number tested",[2],5/5
same,"I. scapularis nymphs (24 h), number killed/number tested","[3]; 2% acetone solution (wt./vol.) dried in vials, 24 h",10/10
same,"I. scapularis nymphs (72 h), number killed/number tested","[3]; treated vials sat 72 h, arthropods added for final 24 h",5/5
same,mortality,"[4]; 24 hour exposure at each test through 10 weeks, each group of arthropods",100%
same,time at which biocidal activity began to dissipate below the 100% mortality level,[4]; vials treated with 2% solutions,11 weeks
